Laboratory results from patent EP0409410B1, “Indenoindole compounds” (UNIVERSITY OF BATH, priority 1989, dated 1991).

Tests used:
[1] = test system: ascorbate/Fe²⁺-dependent lipid peroxidation; test: Ascorbate/Fe²⁺-dependent lipid peroxidation (2-thiobarbituric acid-reactive material); assay type: biochemical; conditions: concentration required to inhibit lipid peroxidation by 50%; 200 µg/ml soy bean phospholipid, 10 µM iron, 100 µM ascorbic acid, 0.1 M KPi pH 7.4, room temperature, 30 min
Text: (§1) The most remarkable feature of the compounds of the invention is their efficacy as free-radical scavengers or antioxidants. An assay system measuring the concentration of the compounds of formulas (IA) and (IB) required to inhibit lipid peroxidation by 50% (IC₅₀) was used. Other assays described below are the red blood cell fragility test used for measuring membrane stabilisation by indenoindoles (Table 2), and protection by indenoindoles against cytotoxicity of N-methyl-N¹-nitro-N-nitrosoguanidine (MNNG) in rat hepatocytes (Table 3). MNNG is a highly cytotoxic agent, the mechanism of action of which may involve a radical-mediated membrane destabilization.
For the ferrous/ascorbate lipid peroxidation system, 6.25 ml of 0.1 M potassium phosphate buffer (KPi), pH 7.4, was added to 12.5 mg dried soy bean phospholipids. After flushing with argon for 2 min, the suspension was sealed with five layers of Parafilm and sonicated until the suspension was translucent. The final reaction mixture was composed of 200 µg/ml phospholipid, 10 µM FeNH₄ (SO₄)₂ or Fe(NH₄)₂(SO₄)₂, and 100 µM ascorbic acid in 0.1 M KPi (pH 7.4), and the antioxidant to be tested in acetone or DMSO. The volume of vehicle never exceeded 1% of the total volume. The reaction was initiated by the addition of ascorbic acid plus iron. The reaction was continued at room temperature in a shaking water bath for 30 min and then stopped by the addition of […] of 0.5 M butylated hydroxytoluene in DMSO. The above procedure and the subsequent determination of 2-thiobarbituric acid-reactive material is described in: Shertzer, H.G. et al, Biochem. Pharmacol. 37, 333 (1988). […]

[2] = test system: red blood cells; test: Red blood cell fragility test (membrane stabilization, protection from osmolysis); assay type: cell-based, Rats; conditions: red blood cell fragility protective index value: linear regression slope, percentage protection against osmolysis per µM protecting agent; rat blood, absorbance at 656 nm
Text: as §1
The membrane stabilization effect of indenoindoles was assayed by the red blood cell fragility test. Rats were anesthesized With 65 mg pentobarbital per kg body weight by i.p. injection. Blood samples were removed into a heparinized syringe from the left ventricle and diluted 20-fold with buffer containing 140 mM NaCl, 10 mM sodium citrate and 5 mM glucose (pH 7.4) at 0°C. Diluted blood was kept on ice. A 0.75 ml aliquot of blood was added to a 4 ml cuvette containing 10 µl DMSO or 10 µl of the antioxidant dissolved in DMSO vehicle. After 1 min of gentle swirling, 0.75 ml of 0.9 % NaCl or H₂O were added to the cuvette by forceful pipetting, and the absorbance at 656 nm was recorded with a Beckman DU-70 spectrophotometer. When H₂O was added in the absence of a stabilizing agent, absorbance decreased wtihin 15 sec to 0.8. Addition of NaCl instead of H₂O gave a time-independent absorbance of 2.2. In the presence of increasing concentrations of stabilizing chemicals, the absorbance decrease observed after the addition of water was diminished. The % protection from osmolysis was obtained from the equation [E(2.2- 0.8) - A/2.2-0.8)] x 100% [formula] , where A=2.2 minus the absor bance decrease when water is added in the presence of a known concentration of chemical. The % protection is then plotted against several concentrations of the chemical being treated. The red blood cell fragility protective index value (RBC-PIV) is the linear regression slope of this plot, expressed as the percentage protection against osmolysis per µM protecting agent. […]

[3] = test system: rat hepatocytes; test: Protection against cytotoxic effects of MNNG in hepatocytes (trypan blue exclusion); assay type: cell-based, male Sprague-Dawley rats; conditions: Hepatocyte, concentration of compound required to extend by 1 hour the time needed for MNNG (0.5 mM) to kill 50 % of the viable cells, read-out: IC₅₀
Text: as §1
The protective effects of indenoindoles on MNNG-induced cytotoxicity was assayed with rat hepatocytes. Hepatocytes were prepared from male Sprague-Dawley rats by collagenase treatment as originally described by Zahlten and Stratman (Zahlten, R.N. and Stratman, F.W., Arch. Biochem. Biophys. 163, 600 (1988)), as modified by Reitman et al (Reitman, F.A., Shertzer, H.G. and Berger, M.L., Biochem. Pharmacol. 37,3183 (1988)). In order to improve viability, cells were centrifuged through 0.508 g/ml Percoll (Pharmacia AB, Uppsala, Sweden) in 137 mM NaCl, 8.1 mM Na₂HPO₄ and 1.5 mM KH₂PO₄ (pH 7.4). Putative protecting agents were added to the cells as solutions in DMSO, with the final concentration of DMSO never exceeding 5 µl/ml of cell suspension. MNNG was added to a concentration of 0.5 mM as a solution in ethanol, giving a final concentration of ethanol of 1%; ethanol alone was by itself without effect. Viability was determined as the percentage of cells that excluded 0.2 % trypan blue. Values are the concentration of compound required to extend by 1 hour the time needed for MNNG to kill 50 % of the viable cells.

SMILES	pIC₅₀ [1]	RBC-PIV [2] [%/µM]	IC50 [3] [nM]
CN1c2ccccc2[C@H]2c3ccccc3C[C@H]21 [6-Methyl-iso-THII, cis-5,5a,6,10b-Tetrahydro-methylindeno[2.1-b]indole]	6.1		
CC12Cc3ccccc3C1(C)Nc1ccccc12 (stereo not drawn) [4b,9b-Dimethyl-THII, cis-4b,5,9b,10-Tetrahydro-4b,9b-dimethylindenol[1.2-b]indole]	7.2		
CC12Cc3ccccc3C1Nc1ccccc12 (stereo not drawn) [9b-Methyl-THII, cis-4b,5,9b,10-Tetrahydro-9b-methylindeno [1.2-b]-indole]	7.0		
CC12Nc3ccccc3C1Cc1ccccc12 (stereo not drawn) [4b-Methyl-THII, cis-4b,5,9b,10-Tetrahydro-4b-methylindeno[1,2-b]inole]	7.1		
Cc1ccc2c(c1)[C@@]1(C)Cc3ccccc3[C@@]1(C)N2 (relative stereo) [4b,8,9b-Trimethyl-THII, cis 4b,5,9b,10-Tetrahydro-4b,8,9b-trimethylindeno[1,2-b]indole]	7.6		
COc1c(C)cc2c(c1C)C[C@@H]1c3ccccc3N[C@H]21 (relative stereo) [2-Methoxy-1,3-dimethyl-THII, cis-4b,5,9b,10-Tetrahydro-2-methoxy-1,3-dimethylindeno[1,2-b]indole]	7.2		
Cc1ccc2c(c1)[C@H]1Cc3ccccc3[C@H]1N2 (relative stereo) [8-Methyl-THII, cis-4b,5,9b,10-Tetrahydro-8 methylindeno[1,2-b]indole]	7.1		
Fc1ccc2c(c1)[C@H]1Cc3ccccc3[C@H]1N2 (relative stereo) [8-Fluoro-THII, cis-4b,5,9b,10-Tetrahydro-8-fluoroindeno[1,2-b]indole]	7.5		
c1ccc2c(c1)C[C@H]1Nc3ccccc3[C@@H]21 (relative stereo) [iso-THII, cis-5,5a,6,10b-Tetrahydroindeno[2,1-b]indole]	6.9	0.38	2000
CC(C)c1ccc2c(c1)[C@H]1Cc3ccccc3[C@H]1N2 (relative stereo) [8-Isopropyl-THII, cis-4b,5,9b,10-Tetrahydro-8-iso-propylindeno[1,2-b]indole]	7.3		
COc1ccc2c(c1)[C@@H]1c3ccccc3C[C@@H]1N2 (relative stereo) [9-Methoxy-iso-THII, cis-5,5a,6,10b-Tetrahydro-9-methoxyindeno[2,1-b]indole]	7.7		
COc1ccc2c(c1)C1Cc3ccccc3C1N2C (stereo not drawn) [8-Methoxy-5-methyl-THII, cis-4b.5.9b,10-Tetrahydro-8-methoxy-5-methylindeno[1,2-b]indole]	7.0		
Cc1ccc2c(c1)[C@@]1(C)Cc3ccccc3[C@@]1(C)N2C (relative stereo) [4b,5,8,9b-Tetramethyl-THII, cis-4b,5,9b,10-tetrahydro-4b,5,8,9b-tetramethylindeno[1,2-b]indole]	6.8		
CN1c2ccccc2[C@H]2Cc3ccccc3[C@H]21 (relative stereo) [5-Methyl-THII, cis-4b,5,9b,10-Tetrahydro-5-methylindeno[1,2-b]indole]	6.1	0.64	2200
Cc1cc(C)c2c(c1)[C@H]1Cc3ccccc3[C@H]1N2 (relative stereo) [6,8-Dimethyl-THII, cis-4b,5,9b,10-Tetrahydro-6,8-dimethylindeno[1,2-b]indole]	7.3		
Cc1cc2c(c(C)c1O)C[C@@H]1c3ccccc3N[C@H]21 (relative stereo) [2-Hydroxy-1,3-dimethyl-THII, cis-4b,5,9b,10-Tetrahydro-2-hydroxy-1,3-dimethylindeno[1,2-b]indole]	7.9		
c1ccc2c(c1)C[C@@H]1c3ccccc3N[C@H]21 (relative stereo) [THII, cis-4b,5,9b,10-Tetrahydroindeno[1,2-b]indole]	6.9	0.41	2200
CC(C)c1ccc2c(c1)[C@@H]1c3ccccc3C[C@@H]1N2 (relative stereo) [9-Isopropyl-iso-THII, cis-5,5a,6,10b-Tetrahydro-9-isopropylindeno[2,1-b]indole]	7.4		
COc1ccc2c(c1)[C@H]1Cc3c(cc(C)c(OC)c3C)[C@H]1N2 (relative stereo) [2,8-Dimethoxy-1,3,dimethyl-THII, cis-4b,5,9b,10-Tetrahydro-2,8-dimethoxy-1,3-dimethylindeno[1,2-b]indole]	8.1		
CC(C)c1ccc2c(c1)[C@H]1Cc3ccccc3[C@@]1(C)N2 (relative stereo) [8-Isopropyl-4b-methyl-THII, cis-4b,5,9b,10-Tetrahydro-4b-methyl-8-isopropylindeno-[1,2-b]indole]	7.7		
CCN(CC)c1ccc2c(c1)C1Cc3ccccc3C1N2CC (stereo not drawn) [8-Diethylamino-5-ethyl-THII, cis-4b,5,9b,10-Tetrahydro-5-ethyl-8-(N.N-diethylamino)-indeno[1,2-b]indole]	7.1		
CC(C)c1ccc2c(c1)[C@@]1(C)Cc3ccccc3[C@@]1(C)N2 (relative stereo) [8-Isopropyl-4b,9b-dimethyl, cis-4b,5,9b,10-Tetrahydro-4b,9b-dimethyl-8-isopropylindeno[1,2-b]indole]	7.7		
Cc1cc(C)c2c(c1)[C@@]1(C)Cc3ccccc3[C@@]1(C)N2 (relative stereo) [4b,6,8,9b-Tetramethyl-THII, cis-4b,5,9b,10-Tetrahydro-4b,6,8,9b-tetramethylindeno[1,2-b]indole]	7.4		
CC1(C)c2ccccc2[C@H]2Nc3ccccc3[C@H]21 (relative stereo) [10,10-Dimethyl-THII, cis-4b,5,9b,10-Tetrahydro-10,10-dimethylindeno [1,2-b] indole]	6.9		
Cc1c(C)c2c(c(C)c1O)CCC(C)(CCCC(C)CCCC(C)CCCC(C)C)O2 (stereo not drawn) [α-Tocopherol (Vitamin E), α-Tocopherol, reference compound]	5.0	0.10	
CCN(CC)c1ccc2c(c1)C[C@@H]1c3ccccc3N[C@H]21 (relative stereo) [2-Diethylamino-THII, cis-4b,5,9b,10-Tetrahydro-2-(N,N-Diethylamino)-indeno[1,2-b]indole]	7.2		
COc1ccc2c(c1)[C@H]1Cc3ccccc3[C@H]1N2 (relative stereo) [8-Methoxy-THII, cis-4b,5,9b,10-Tetrahydro-8-methoxyindeno[1,2-b]indole]		0.21	
CC(=O)Oc1c(C)c(C)c2c(c1C)CCC(C)(CCCC(C)CCCC(C)CCCC(C)C)O2 (stereo not drawn) [α-Tocopheryl-acetate, reference compound]			161000
COc1cc(C)c2c(c1)[C@H]1Cc3ccccc3[C@H]1N2 (relative stereo) [8-Methoxy-6-methyl-THII, cis-4b,5,9b,10-Tetrahydro-8-methoxy 6-methylindeno[1,2-b]indole]	8.0		
Cc1ccc2c(c1)C1Cc3ccccc3C1N2C (stereo not drawn) [5,8-Dimethyl-THII, cis-4b,5,9b,10-Tetrahydro-5,8-dimethylindenol[1,2-b]indole]	6.4		
